{"source": "patent US20250352539A1", "about": "“COMBINATION THERAPY FOR TREATING CANCER” (AstraZeneca AB, priority 2022, published 2025)", "tested_on": "HCC1395", "assay": "10-day Cell Titre Glo combination screen", "type": "cell-based", "conditions": "Homo sapiens; HCC1395 breast; monotherapy; read-out: mono AC50", "summary_of_the_method": "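Readout: CellTiter-Glo luminescence after 10 days of exposure to compound pairs in a 6×6 concentration grid. Growth inhibition is referenced to day-zero and DMSO controls; reported values include HSA synergy scores, CI and single-agent AC50.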", "data": [{"smiles": "C[C@@H]1COCCN1c1cc(C2([S@](C)(=N)=O)CC2)nc(-c2ccnc3[nH]ccc23)n1", "note": "[AZD6738, 4-{4-[(3R)-3-Methylmorpholin-4-yl]-6-[1-((R)—S-methylsulfonimidoyl)cyclopropyl]pyrimidin-2-yl}-1H-pyrrolo[2,3-b]-pyridine]", "values": [{"measurement": "AC50", "result": 814, "unit": "nM"}]}]}
